The nature of data set [1]: Solubilization of prednisolone in water by the cyclodextrin derivative. In kind it is physicochemical. Here is the method:
10 μmole of heptakis-6-ethanolamino-6-deoxycyclomaltoheptaose (in hydrochloride form) prepared in example 1, are dissolved in 1 ml of pure water (apyrogenic water for injection) and addition takes place of 5 μmole of prednisolone in the form of a 50 mmole/l concentrated solution in acetone. The acetone is eliminated by nitrogen passage for 10 minutes and the solution is lyophilized.
The residual solid, which contains 10 μmole of the cyclodextrin derivative and 5 μmole of prednisolone, is redissolved in the minimum of water at 25° C.

Data set [2] in a line: Ionization potential measurements (pK) by potentiometry. In kind it is physicochemical.
Data set [3] in a line: Solubility in water under physiological conditions. The following applies: sodium phosphate buffer, pH 7.4, aqueous buffer.
Another data set relates to human erythrocytes. The data set is described as follows: Hemolytic properties on human erythrocytes. Type of data set: cell-based. The following applies: 5 mmole/l hydrochloride solution (4 ml) with 0.4 ml human erythrocytes, pH 7.4, 30 minutes, 37° C. Here is the method: Thus, the hemolytic properties of the derivative obtained in example 1 were tested by contacting 0.4 ml of a solution of human erythrocytes and 4 ml of the 5 mmole/l hydrochloride solution, at a pH of 7.4, for 30 minutes and 37° C.

[4] abbreviates: potentiometry, single pK, read-out: pK (single).
Where [5] appears, read: Solubility in water under physiological conditions, free base form, pH 7.40, 25° C.
The mark [6] stands for this setting: Solubility in water under physiological conditions, hydrochloride form, pH 7.40, 25° C.

Values after ≈ are worked out from the molar mass of the structure shown. Read-outs that look alike come from different tables or passages of the source.

This note sets out measurements from patent US5760017A, “Cyclodextrin derivatives usable in particular for solubilizing hydrophobic chemical compounds such as medicaments and their preparation process” (priority 1993, dated 1998).

Broadly, the solubility is the concentration that dissolves in the medium under given conditions. Low readings indicate little dissolved substance, high ones much dissolved substance. In the case of `OCCNC[C@H]1O[C@@H]2O[C@H]3[C@H](O)[C@@H](O)[C@@H](O[C@H]4[C@H](O)[C@@H](O)[C@@H](O[C@H]5[C@H](O)[C@@H](O)[C@@H](O[C@H]6[C@H](O)[C@@H](O)[C@@H](O[C@H]7[C@H](O)[C@@H](O)[C@@H](O[C@H]8[C@H](O)[C@@H](O)[C@@H](O[C@H]1[C@H](O)[C@H]2O)O[C@@H]8CNCCO)O[C@@H]7CNCCO)O[C@@H]6CNCCO)O[C@@H]5CNCCO)O[C@@H]4CNCCO)O[C@@H]3CNCCO` [Example 2, heptakis-6-ethanolamino-6-deoxycyclomaltoheptaose], the “maximum prednisolone solubility reached in water in the presence of the cyclodextrin (derivative)” value (“maximum prednisolone solubility reached” for short) in data set [1] came to 30 mM. For the same compound, the pKa in data set [2] (setting [4]) was determined as 7.05. For the same compound, the solubility in data set [3] (setting [5]) came out at 140 mM (≈ 201 mg/mL); in data set [3] (setting [6]), 350 mM (≈ 503 mg/mL).

With `OCCNC[C@H]1O[C@@H]2O[C@H]3[C@H](O)[C@@H](O)[C@@H](O[C@H]4[C@H](O)[C@@H](O)[C@@H](O[C@H]5[C@H](O)[C@@H](O)[C@@H](O[C@H]6[C@H](O)[C@@H](O)[C@@H](O[C@H]7[C@H](O)[C@@H](O)[C@@H](O[C@H]8[C@H](O)[C@@H](O)[C@@H](O[C@H]1[C@H](O)[C@H]2O)O[C@@H]8CO)O[C@@H]7CO)O[C@@H]6CO)O[C@@H]5CO)O[C@@H]4CO)O[C@@H]3CO` [Example 1, mono-6-ethanolamino-6-deoxycyclomaltoheptaose], the “maximum prednisolone solubility reached” value in data set [1] is 18 mM. For the same compound, the “hemolysis (in words)” value in the data set with human erythrocytes was “no hemolysis was observed”. Further, in data set [2] (setting [4]), the pKa is 7.1. For the same compound, the solubility stood at 40 mM (≈ 47.1 mg/mL) in data set [3] (setting [5]) and 95 mM (≈ 112 mg/mL) in data set [3] (setting [6]).

For the compound `NCCNC[C@H]1O[C@@H]2O[C@H]3[C@H](O)[C@@H](O)[C@@H](O[C@H]4[C@H](O)[C@@H](O)[C@@H](O[C@H]5[C@H](O)[C@@H](O)[C@@H](O[C@H]6[C@H](O)[C@@H](O)[C@@H](O[C@H]7[C@H](O)[C@@H](O)[C@@H](O[C@H]8[C@H](O)[C@@H](O)[C@@H](O[C@H]1[C@H](O)[C@H]2O)O[C@@H]8CO)O[C@@H]7CO)O[C@@H]6CO)O[C@@H]5CO)O[C@@H]4CO)O[C@@H]3CO` [reference compound], the “maximum prednisolone solubility reached” value in data set [1] (25° C., 10 μmole cyclodextrin derivative and 5 μmole prednisolone, lyophilized, redissolved in minimum of water (cyclodextrin derivative at 60 mmole/l for the per-substituted derivative)) came to 12 mM. Further, the pKa in data set [2] (first of two pK's, read-out: pK (first of two)) worked out at 7.5; in data set [2] (second of two pK's, read-out: pK (second of two)), 9.5. This compound also registered a solubility in data set [3] of 70 mM (≈ 82.4 mg/mL).
